Data set [1] can be described thus: Stability at 40° C./75% RH in a glass bottle with an open state for 4 weeks. Type of data set: physicochemical. On the procedure: Stabilities of crystalline forms of Type I, Type II and Type VII, and amorphous of (2R,4S)-1-{N-(3,5-bistri-fluoromethylbenzyl)-N-methyl}aminocarbonyl-2-(4-fluoro-2-methylphenyl)-4-(2-hydroxyethylaminocarboxyloxy)piperidine were observed under the conditions of at 40° C./75% RH in a glass bottle with an open state for 4 weeks. […] Accordingly, improvement in stability according to crystallization could be confirmed.

The target in data set [2] is T1, human neurokinin-1 receptor (Homo sapiens, UniProt P25103).
T1 construct: Human lymphoblastoma IM-9 cells (5 10^6 cell/tube) were reacted with 0.3 nM; endogenous in cells; host or cells: human lymphoblastoma IM-9 cells
In words: Neurokinin-1 (NK1) receptor binding inhibitory action, [3H](Sar9, Met11(O2)) Substance P on IM-9 cells. An excerpt: Measurements on the crystalline form of the present invention can be carried out, for example, according to the method described in European Journal of Pharmacology, vol. 254, pages 221-227 (1994) with respect to a neurokinin-1 receptor binding action, and according to the method described in European Journal of Pharmacology, vol. 265, pages 179-183 (1994) with respect to an action against a neurokinin-1 receptor […] inducing action, further according to the method described in Journal of Urology, vol.
Device: Dynamic Vapor Sorption device DVS-1 manufactured by Surface Measurement Systems, UK Amount of specimen: 10 mg Measured temperature: 25° C. Relative humidity range: 0 to 90% Experimental example 1 Neurokinin-1 (NK1) receptor binding inhibitory action Human lymphoblastoma IM-9 cells (5 10^6 cell/tube) were reacted with 0.3 nM [^3H] (Sar^9, Met^11 (O2)) Substance P and the prepared Type II crystalline form of (2R,4S)-1-{N-(3,5-bistrifluoromethylbenzyl)-N-methyl}aminocarbonyl-2-(4-fluoro-2-methylphenyl)-4-(2-hydroxyethylaminocarboxyloxy)-piperidine in 0.5 ml of 50 mM Tris-HCl (pH 7.4, 25° C.) containing 150 mM NaCl, 3 mM MnCl2, 40 μg/ml bacitracin, 4 μg/ml Leupeptin, 4 μg/ml Chymostatin, 4 μg/ml Phosphoramidon and 0.02% bovine serum albumin at room temperature for 60 minutes according to the method described in European Journal of Pharmacology, vol. 254, pp. 221-227 (1994). The reaction mixture was subjected to suction filtration with a GF/C glass filter which had previously been treated with 0.3% polyethyleneimine, washed with 0.3 ml of ice-cold reaction buffer containing no bovine serum albumin and various kinds of protein decomposition enzyme inhibitors twice, and radioactivity (dpm) on the filter was measured by a liquid scintillation counter. A specific binding amount was obtained by subtracting non-specific binding amount (L-703606 (10 μM) having NK1 receptor antagonistic action) from a total binding amount.

Data set [3] can be described thus: Hygroscopicity by Dynamic Vapor Sorption. Type of data set: physicochemical. The following applies: DVS-1, 25° C., relative humidity range 0 to 90%, 10 mg. Here is the method: With regard to Type I and Type II crystalline forms of (2R,4S)-1-{N-(3,5-bistrifluoromethylbenzyl)-N-methyl}-aminocarbonyl-2-(4-fluoro-2-methylphenyl)-4-(2-hydroxy-ethylaminocarboxyloxy)piperidine, hygroscopicity was measured according to the following mentioned conditions.
Device: Dynamic Vapor Sorption device DVS-1 manufactured by Surface Measurement Systems, UK Amount of specimen: 10 mg Measured temperature: 25° C. Relative humidity range: 0 to 90% Experimental example 1 Neurokinin-1 (NK1) receptor binding inhibitory action Human lymphoblastoma IM-9 cells (5 10^6 cell/tube) were reacted with 0.3 nM [^3H] […] The reaction mixture was subjected to suction filtration with a GF/C glass filter which had previously been treated with 0.3% polyethyleneimine, washed with 0.3 ml of ice-cold reaction buffer containing no bovine serum albumin and various kinds of protein decomposition enzyme inhibitors twice, and radioactivity (dpm) on the filter was measured by a liquid scintillation counter. […]

“Also recorded” adds a separate entry of the source.

Broadly, the IC50 is the point on the concentration scale where inhibition reaches its midpoint. In general, Ki refers to a dissociation constant, usually derived from enzyme kinetics or from competition with a known ligand.

T1 sequence (P25103 whole entry): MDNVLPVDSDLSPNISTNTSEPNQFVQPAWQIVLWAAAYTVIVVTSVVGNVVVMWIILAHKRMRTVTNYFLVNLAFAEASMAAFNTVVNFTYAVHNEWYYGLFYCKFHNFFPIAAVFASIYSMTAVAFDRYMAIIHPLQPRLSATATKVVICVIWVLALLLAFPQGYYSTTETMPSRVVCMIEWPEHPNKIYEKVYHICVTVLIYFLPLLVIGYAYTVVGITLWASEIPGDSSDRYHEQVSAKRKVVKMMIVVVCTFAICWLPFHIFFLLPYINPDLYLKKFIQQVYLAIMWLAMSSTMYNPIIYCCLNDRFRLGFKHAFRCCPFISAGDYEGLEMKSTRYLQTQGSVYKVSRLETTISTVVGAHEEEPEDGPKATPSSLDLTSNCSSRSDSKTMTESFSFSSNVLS

Turning to `Cc1cc(F)ccc1[C@H]1C[C@@H](OC(=O)NCCO)CCN1C(=O)N(C)Cc1cc(C(F)(F)F)cc(C(F)(F)F)c1` [amorphous, (2R,4S)-1-{N-(3,5-bistrifluoromethylbenzyl)-N-methyl}aminocarbonyl-2-(4-fluoro-2-methylphenyl)-4-(2-hydroxyethylaminocarbonyloxy)piperidine], in data set [1], the change in appearance result is on record as “marked change in appearance (white powder→white lump)” and the moisture absorption entry is listed as “moisture absorption was admitted”.
Regarding `Cc1cc(F)ccc1[C@H]1C[C@@H](OC(=O)NCCO)CCN1C(=O)N(C)Cc1cc(C(F)(F)F)cc(C(F)(F)F)c1` [Type II, (2R,4S)-1-{N-(3,5-bistrifluoromethylbenzyl)-N-methyl}aminocarbonyl-2-(4-fluoro-2-methylphenyl)-4-(2-hydroxyethylaminocarbonyloxy)piperidine], in data set [1], the change in appearance result is recorded as “no change in appearance”. Further, the half-inhibitory concentration (IC50) in data set [2] (Human lymphoblastoma IM-9 cells, 0.3 nM [3H](Sar9, Met11(O2)) Substance P, room temperature 60 minutes, read-out: IC50 value, NK1 receptor binding inhibition) turned out to be 4.59 nM. In addition, the inhibition constant (Ki) in data set [2] (Human lymphoblastoma IM-9 cells, 0.3 nM [3H](Sar9, Met11(O2)) Substance P, room temperature 60 minutes, read-out: Ki value, NK1 receptor binding inhibition) amounted to 2.22 nM. Also, the “neurokinin-1 receptor binding action (in words)” value in data set [2] (human NK1 receptor, IM-9 cells) is “inhibited said Substance P with concentration-dependently; also recorded: showed a human neurokinin-1 receptor binding action with concentration-dependently”. In addition, in data set [3], the “hygroscopicity (change in weight under high humidity conditions)” value is given as “no hygroscopicity”.
On to `Cc1cc(F)ccc1[C@H]1C[C@@H](OC(=O)NCCO)CCN1C(=O)N(C)Cc1cc(C(F)(F)F)cc(C(F)(F)F)c1` [Type I, (2R,4S)-1-{N-(3,5-bistrifluoromethylbenzyl)-N-methyl}aminocarbonyl-2-(4-fluoro-2-methylphenyl)-4-(2-hydroxyethylaminocarbonyloxy)piperidine], for which, in data set [1], the change in appearance entry is “no change in appearance”. Moreover, in data set [3], the “hygroscopicity (change in weight under high humidity conditions)” value is recorded as “no hygroscopicity”.
As to `Cc1cc(F)ccc1[C@H]1C[C@@H](OC(=O)NCCO)CCN1C(=O)N(C)Cc1cc(C(F)(F)F)cc(C(F)(F)F)c1` [Type VII, (2R,4S)-1-{N-(3,5-bistrifluoromethylbenzyl)-N-methyl}aminocarbonyl-2-(4-fluoro-2-methylphenyl)-4-(2-hydroxyethylaminocarbonyloxy)piperidine], the change in appearance entry in data set [1] is “no change in appearance”.

The record behind these values is patent US20100305159A1, “CRYSTALLINE FORM OF PIPERIDINE COMPOUND” (MITSUBISHI TANABE PHARMA CORPORATION, priority 2007, published 2010).
